PubChem BioAssay (NCI)
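1) Cells in 96-well plates. 2) Compound, 48 h, 5 concentrations. 3) Linear interpolation between surrounding doses. 4) Unreached endpoint = highest concentration. Definition used: TGI = concentration required for complete inhibition of growth.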

Experiments:
Assay in all cases: NCI-60 cell line screen, 48 h
A498 renal = test system: A498 renal
A549 NSCLC = test system: A549 NSCLC
ACHN renal = test system: ACHN renal
CAKI-1 renal = test system: CAKI-1 renal
CCRF-CEM leukemia = test system: CCRF-CEM leukemia
COLO 205 colon = test system: COLO 205 colon
DLD-1 colon = test system: DLD-1 colon
DMS 114 small cell lung = test system: DMS 114 small cell lung
EKVX NSCLC = test system: EKVX NSCLC
HCC-2998 colon = test system: HCC-2998 colon
HCT-116 colon = test system: HCT-116 colon
HCT-15 colon = test system: HCT-15 colon
HL-60(TB) leukemia = test system: HL-60(TB) leukemia
HOP-18 NSCLC = test system: HOP-18 NSCLC
HOP-62 NSCLC = test system: HOP-62 NSCLC
HT29 colon = test system: HT29 colon
IGROV1 ovarian = test system: IGROV1 ovarian
K-562 leukemia = test system: K-562 leukemia
KM12 colon = test system: KM12 colon
KM20L2 colon = test system: KM20L2 colon
LOX IMVI melanoma = test system: LOX IMVI melanoma
LXFL 529 NSCLC = test system: LXFL 529 NSCLC
M14 melanoma = test system: M14 melanoma
M19-MEL melanoma = test system: M19-MEL melanoma
MALME-3M melanoma = test system: MALME-3M melanoma
MOLT-4 leukemia = test system: MOLT-4 leukemia
NCI-H226 lung = test system: NCI-H226 lung
NCI-H23 lung = test system: NCI-H23 lung
NCI-H460 lung = test system: NCI-H460 lung
NCI-H522 lung = test system: NCI-H522 lung
OVCAR-3 ovarian = test system: OVCAR-3 ovarian
OVCAR-4 ovarian = test system: OVCAR-4 ovarian
OVCAR-5 ovarian = test system: OVCAR-5 ovarian
OVCAR-8 ovarian = test system: OVCAR-8 ovarian
RPMI-8226 leukemia = test system: RPMI-8226 leukemia
SF-268 CNS = test system: SF-268 CNS
SF-295 CNS = test system: SF-295 CNS
SF-539 CNS = test system: SF-539 CNS
SK-MEL-2 melanoma = test system: SK-MEL-2 melanoma
SK-MEL-28 melanoma = test system: SK-MEL-28 melanoma
SK-MEL-5 melanoma = test system: SK-MEL-5 melanoma
SK-OV-3 ovarian = test system: SK-OV-3 ovarian
SN12C renal = test system: SN12C renal
SNB-19 CNS = test system: SNB-19 CNS
SNB-75 CNS = test system: SNB-75 CNS
SNB-78 CNS = test system: SNB-78 CNS
SR leukemia = test system: SR leukemia
SW-620 colon = test system: SW-620 colon
U251 CNS = test system: U251 CNS
UACC-257 melanoma = test system: UACC-257 melanoma
UACC-62 melanoma = test system: UACC-62 melanoma
UO-31 renal = test system: UO-31 renal

Measured: TGI

C/C(=C1/N=C(c2cc([N+](=O)[O-])ccc2Cl)N(c2ccc(Br)cc2)C1=O)c1cc2ccccc2oc1=O
21.8 µM: COLO 205 colon
65.1 µM: HCC-2998 colon
52.4 µM: NCI-H522 lung
66.8 µM: A498 renal
> 100 µM: all other assays above
